ChEMBL document CHEMBL3885881, “DrugMatrix”

Species on record: Rattus norvegicus
Assay: DrugMatrix - Regimen: Daily Repeat
Assay type: toxicity, organism-based, Sprague-Dawley
Parameters: regimen Daily Repeat, gender Male, age 6-8 weeks
Conditions: in vivo, po, route oral GAVAGE, vehicle .5 % CMC; for ABSOLUTE BASOPHIL / ABSOLUTE EOSINOPHIL / ABSOLUTE LYMPHOCYTE / ABSOLUTE MONOCYTE / ABSOLUTE SEGMENTED NEUTROPHIL / BASOPHIL / EOSINOPHIL / ERYTHROCYTE COUNT / HEMATOCRIT / HEMOGLOBIN / LEUKOCYTE COUNT / LYMPHOCYTE / MEAN CORPUSCULAR HEMOGLOBIN / MEAN CORPUSCULAR HEMOGLOBIN CONCENTRATION / MEAN CORPUSCULAR VOLUME / MONOCYTE / NEUTROPHIL / NUCLEATED RED BLOOD CELLS / PLATELET COUNT: tissue Blood; for ALANINE AMINOTRANSFERASE / ALBUMIN / ALKALINE PHOSPHATASE / ASPARTATE AMINOTRANSFERASE / BLOOD UREA NITROGEN / CARBON DIOXIDE / CHLORIDE / CHOLESTEROL / CREATINE PHOSPHOKINASE / CREATININE / GLUCOSE / LACTATE DEHYDROGENASE / LIPASE / PHOSPHORUS / POTASSIUM / SODIUM / TOTAL BILIRUBIN / TOTAL PROTEIN / URIC ACID: tissue Plasma
[1] = 0 mg/kg, 72 h, dose level Control, time 3 day
[2] = 0 mg/kg, 120 h, dose level Control, time 5 day
[3] = 500 mg/kg, 72 h, dose level Low, time 3 day

With `CC(C)(Sc1cc(C(C)(C)C)c(O)c(C(C)(C)C)c1)Sc1cc(C(C)(C)C)c(O)c(C(C)(C)C)c1` [PROBUCOL] the “ABSOLUTE BASOPHIL” value [1] was 0 CELLS/uL, the “ABSOLUTE EOSINOPHIL” value [1] was 222.83 CELLS/uL and the “ABSOLUTE LYMPHOCYTE” value [1] was 14453 CELLS/uL. The “ABSOLUTE MONOCYTE” value [1] was 0 CELLS/uL, the “ABSOLUTE SEGMENTED NEUTROPHIL” value [1] was 1490.83 CELLS/uL and the BASOPHIL [1] was 0%. The EOSINOPHIL [1] was 1.33%, the “ERYTHROCYTE COUNT” value [1] was 5.76 x10E6/uL and the HEMATOCRIT [1] was 36.52%. For the same molecule, the HEMOGLOBIN [1] was 13.45 G/DL, the “LEUKOCYTE COUNT” value [1] was 16.17 x10E3/uL and the LYMPHOCYTE [1] was 89.33%. The “MEAN CORPUSCULAR HEMOGLOBIN” value [1] was 23.37 pg, the “MEAN CORPUSCULAR HEMOGLOBIN CONCENTRATION” value [1] was 36.85 G/DL and the “MEAN CORPUSCULAR VOLUME” value [1] was 63.47 fL. The MONOCYTE [1] was 0%, the NEUTROPHIL [1] was 9.33% and the “NUCLEATED RED BLOOD CELLS” value [1] was 0 /100WBC. The “PLATELET COUNT” value [1] was 1239.5 x10E3/uL, the “ALANINE AMINOTRANSFERASE” value [1] was 43.83 u/L and the ALBUMIN [1] was 4.27 G/DL. For the same molecule, the “ALKALINE PHOSPHATASE” value [1] was 398.83 u/L, the “ASPARTATE AMINOTRANSFERASE” value [1] was 81.17 u/L and the “BLOOD UREA NITROGEN” value [1] was 17.67 mg/dL. For the same molecule, the “CARBON DIOXIDE” value [1] was 27.5 mmol/L, the CHLORIDE [1] was 99.17 MEQ/L and the CHOLESTEROL [1] was 74 mg/dL. For the same molecule, the “CREATINE PHOSPHOKINASE” value [1] was 331.5 u/L, the CREATININE [1] was 0.2 mg/dL and the GLUCOSE [1] was 171.33 mg/dL. For the same molecule, the “LACTATE DEHYDROGENASE” value [1] was 241.67 u/L, the LIPASE [1] was 9.5 u/L and the PHOSPHORUS [1] was 12.25 mg/dL. For the same molecule, the POTASSIUM [1] was 6.33 MEQ/L, the SODIUM [1] was 141.28 MEQ/L and the “TOTAL BILIRUBIN” value [1] was 0.15 mg/dL. The “TOTAL PROTEIN” value [1] was 5.98 G/DL, the “URIC ACID” value [1] was 1.63 mg/dL and the “ABSOLUTE BASOPHIL” value [2] was 0 CELLS/uL. For the same molecule, the “ABSOLUTE EOSINOPHIL” value [2] was 148.67 CELLS/uL, the “ABSOLUTE LYMPHOCYTE” value [2] was 16020.5 CELLS/uL and the “ABSOLUTE MONOCYTE” value [2] was 29.17 CELLS/uL. The “ABSOLUTE SEGMENTED NEUTROPHIL” value [2] was 1468.33 CELLS/uL, the BASOPHIL [2] was 0% and the EOSINOPHIL [2] was 1%. For the same molecule, the “ERYTHROCYTE COUNT” value [2] was 5.78 x10E6/uL, the HEMATOCRIT [2] was 35.77% and the HEMOGLOBIN [2] was 13.4 G/DL. For the same molecule, the “LEUKOCYTE COUNT” value [2] was 17.67 x10E3/uL, the LYMPHOCYTE [2] was 90.5% and the “MEAN CORPUSCULAR HEMOGLOBIN” value [2] was 23.22 pg. The “MEAN CORPUSCULAR HEMOGLOBIN CONCENTRATION” value [2] was 37.47 G/DL, the “MEAN CORPUSCULAR VOLUME” value [2] was 61.92 fL and the MONOCYTE [2] was 0.17%. For the same molecule, the NEUTROPHIL [2] was 8.33%, the “NUCLEATED RED BLOOD CELLS” value [2] was 0.17 /100WBC and the “PLATELET COUNT” value [2] was 1255.5 x10E3/uL. The “ALANINE AMINOTRANSFERASE” value [2] was 46.5 u/L, the ALBUMIN [2] was 4.38 G/DL and the “ALKALINE PHOSPHATASE” value [2] was 336 u/L. The “ASPARTATE AMINOTRANSFERASE” value [2] was 76.5 u/L, the “BLOOD UREA NITROGEN” value [2] was 20 mg/dL and the “CARBON DIOXIDE” value [2] was 27.5 mmol/L. The CHLORIDE [2] was 101 MEQ/L, the CHOLESTEROL [2] was 71.33 mg/dL and the “CREATINE PHOSPHOKINASE” value [2] was 231.83 u/L. The CREATININE [2] was 0.37 mg/dL, the GLUCOSE [2] was 168.83 mg/dL and the “LACTATE DEHYDROGENASE” value [2] was 174 u/L. It also gave an LIPASE [2] of 8.67 u/L, a PHOSPHORUS [2] of 11.48 mg/dL and a POTASSIUM [2] of 6.82 MEQ/L. The SODIUM [2] was 143.8 MEQ/L, the “TOTAL BILIRUBIN” value [2] was 0.2 mg/dL and the “TOTAL PROTEIN” value [2] was 5.98 G/DL. For the same molecule, the “URIC ACID” value [2] was 1.83 mg/dL, the “ABSOLUTE BASOPHIL” value [3] was 0 CELLS/uL and the “ABSOLUTE EOSINOPHIL” value [3] was 297 CELLS/uL. For the same molecule, the “ABSOLUTE LYMPHOCYTE” value [3] was 13431.33 CELLS/uL, the “ABSOLUTE MONOCYTE” value [3] was 0 CELLS/uL and the “ABSOLUTE SEGMENTED NEUTROPHIL” value [3] was 1238.33 CELLS/uL. For the same molecule, the BASOPHIL [3] was 0%, the EOSINOPHIL [3] was 2% and the “ERYTHROCYTE COUNT” value [3] was 5.69 x10E6/uL. For the same molecule, the HEMATOCRIT [3] was 35.67%, the HEMOGLOBIN [3] was 13.3 G/DL and the “LEUKOCYTE COUNT” value [3] was 14.97 x10E3/uL. The LYMPHOCYTE [3] was 89.67%, the “MEAN CORPUSCULAR HEMOGLOBIN” value [3] was 23.37 pg and the “MEAN CORPUSCULAR HEMOGLOBIN CONCENTRATION” value [3] was 37.3 G/DL. For the same molecule, the “MEAN CORPUSCULAR VOLUME” value [3] was 62.7 fL, the MONOCYTE [3] was 0% and the NEUTROPHIL [3] was 8.33%. The “NUCLEATED RED BLOOD CELLS” value [3] was 0 /100WBC, the “PLATELET COUNT” value [3] was 1188.33 x10E3/uL and the “ALANINE AMINOTRANSFERASE” value [3] was 35.33 u/L. For the same molecule, the ALBUMIN [3] was 4.5 G/DL, the “ALKALINE PHOSPHATASE” value [3] was 363.33 u/L and the “ASPARTATE AMINOTRANSFERASE” value [3] was 79 u/L. The “BLOOD UREA NITROGEN” value [3] was 17.33 mg/dL, the “CARBON DIOXIDE” value [3] was 26.33 mmol/L and the CHLORIDE [3] was 100 MEQ/L. For the same molecule, the CHOLESTEROL [3] was 67.33 mg/dL, the “CREATINE PHOSPHOKINASE” value [3] was 213 u/L and the CREATININE [3] was 0.25 mg/dL. The GLUCOSE [3] was 158 mg/dL, the “LACTATE DEHYDROGENASE” value [3] was 122 u/L and the LIPASE [3] was 8.33 u/L. It also gave a PHOSPHORUS [3] of 12.37 mg/dL, a POTASSIUM [3] of 6.67 MEQ/L and an SODIUM [3] of 142.2 MEQ/L. For the same molecule, the “TOTAL BILIRUBIN” value [3] was 0.13 mg/dL, the “TOTAL PROTEIN” value [3] was 6.23 G/DL and the “URIC ACID” value [3] was 1.73 mg/dL.
